Measured values from article PMC4649711, “In1-ghrelin splicing variant is overexpressed in pituitary adenomas and increases their aggressive features” (Scientific Reports, 2015).
Entries after “also recorded” stand apart in the source; their conditions may differ. Each block holds one compound with its values, some of them ahead of it. Residues, ends and D or L forms follow the SMILES beside them. *: point of attachment. Octanoyl = CCCCCCCC(=O)*

Columns and labels:
GH-omas = test: cell viability of GH-omas after In1-ghrelin silencing; format: cell-based, human; conditions: siRNA 100 nM vs scramble, 24 and 48 h, alamar-blue, n = 2
Source text: (§1) To perform overexpression experiments, ghrelin sequence was purchased, cloned in pCMV-Sport6-vector (Harvard Cancer Center, Boston, MA, USA) and was subcloned into the expression vector pCDNA3.1+ (Life Technologies, Grand Island, NY, USA). In1-ghrelin sequence was PCR-amplified (In1-Hind-Up: 5′-[…]-3′ and In1-Bam-Low: 5′-[…]-3′) and cloned into pCDNA3.1+. Empty pCDNA3.1+ (mock) was used in all the experiments as negative control. For silencing experiments, a battery of custom-designed siRNAs specifically targeted against the unique In1-ghrelin mRNA sequence was chemically synthesized by Life Technologies and their efficiency, specificity and appropriate concentration tested in human cell lines expressing In1-ghrelin (MDA-MB-231 breast cancer cell line and LnCAP prostate cancer cell line) (data not shown). […]
(§2) As previously reported, cell viability was estimated using alamar-blue reagent (10,000 cells/well-plate; Biosource International, Camarillo, CA, USA)[30][50][52]. […] Reduction of alamar-blue reagent was quantified exciting at 560 nm and reading at 590 nm using the FlexStation III system (Molecular Devices, Sunnyvale, CA, USA). […]

NFPAs = test: cell viability of NFPAs after In1-ghrelin silencing; format: cell-based, human; conditions: siRNA 100 nM vs scramble, 24 and 48 h, alamar-blue, n = 2
Source text: as §1, §2

In1-ghrelin mRNA = test: silencing of In1-ghrelin mRNA expression; format: cell-based, human; conditions: qPCR; for silencing of In1-ghrelin expression: human cell lines MDA-MB-231 and LnCAP (data not shown) or representative pituitary tumor validation (Figure 6G)
Source text: To perform overexpression experiments, ghrelin sequence was purchased, cloned in pCMV-Sport6-vector (Harvard Cancer Center, Boston, MA, USA) and was subcloned into the expression vector pCDNA3.1+ (Life Technologies, Grand Island, NY, USA). In1-ghrelin sequence was PCR-amplified (In1-Hind-Up: 5′-[…]-3′ and In1-Bam-Low: 5′-[…]-3′) and cloned into pCDNA3.1+. Empty pCDNA3.1+ (mock) was used in all the experiments as negative control. For silencing experiments, a battery of custom-designed siRNAs specifically targeted against the unique In1-ghrelin mRNA sequence was chemically synthesized by Life Technologies and their efficiency, specificity and appropriate concentration tested in human cell lines expressing In1-ghrelin (MDA-MB-231 breast cancer cell line and LnCAP prostate cancer cell line) (data not shown). […] As a negative control, a commercial, validated negative control (scramble) was used in all the experiments, which according to the manufacturer's instructions, has no significant sequence similarity to murine or human gene sequences (Silencer Select Negative Control No. 1 siRNA, Life Technologies, […], NY, USA).
For transfection assays (overexpression or silencing), 200,000–500,000 cells were seeded on 6-well plates in serum containing medium during 24–36 h. Then, medium was replaced with antibiotic-antimycotic free medium. For overexpression experiments, 100 ng/50,000 cell of ghrelin or In1-ghrelin plasmid was diluted in 50 μL of Opti-MEM and, 0.5 μL of Lipofectamine 2000 (Life Technologies) were separately diluted in another 50 μL of Opti-MEM. Both solutions were incubated for 5 minutes at room temperature and then, were mixed and incubated for 30 minutes at room temperature. After this incubation period, the solution (total of 100 μL) was added to the cells/per well. For silencing experiments, 7.5 μL of Lipofectamine RNAiMAX (Life Technologies) was diluted in 100 μL of Opti-MEM and, 100 nM of In1-ghrelin siRNA was separately diluted in another 100 μL of Opti-MEM. […]

recombinant human GHSR1b = molecular target: T1, recombinant human GHSR1b (Homo sapiens, UniProt Q92847); test: calcium signaling activation in GHSR1b-transfected CHO-K1 cells; format: cell-based; conditions: Calcium 4 kit, FLIPR Tetra, 37°C dye loading 1 h, dose-response, GraphPad Prism, read-out: Half-maximal Calcium signaling activation (EC50)
T1 construct: expressed in transfected cells; host or cells: CHO-K1 (ATCC CCL-61), stably transfected
T1 sequence (Q92847 1-289 isoform Q92847-2): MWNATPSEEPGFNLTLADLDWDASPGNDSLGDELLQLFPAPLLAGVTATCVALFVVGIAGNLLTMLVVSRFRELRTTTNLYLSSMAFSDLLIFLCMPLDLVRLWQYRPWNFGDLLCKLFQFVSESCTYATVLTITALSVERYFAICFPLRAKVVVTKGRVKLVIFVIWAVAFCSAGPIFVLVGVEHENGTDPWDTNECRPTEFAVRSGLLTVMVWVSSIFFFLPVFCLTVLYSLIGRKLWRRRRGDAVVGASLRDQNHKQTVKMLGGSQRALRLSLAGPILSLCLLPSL
Method: Changes in [Ca^2+]i in CHO-K1 cell line expressing recombinant GHSR1a or GHSR1b receptor were measured using Calcium 4 Explorer Kit (Molecular Devices, Sunnyvale, CA, USA). Briefly, cells were incubated at 37°C, 5% CO2 overnight in growth media. After 24 hours, growth media was replaced with Calcium 4 indicating dye in HBSS buffer containing 20 mM HEPES and 0.1% BSA and incubated for 1 hour at 37°C. Fluorescent signals were then monitored using the FLIPR Tetra (Molecular Devices, Sunnyvale, CA, USA) during which cells were stimulated with compounds. Dose-response curves were analyzed using GraphPad Prism v5.04 (La Jolla, CA, USA).

AtT-20 cell line [1] = test: ACTH secretion from AtT-20 cell line; format: cell-based, mouse; conditions: 4 h, 3–5 independent experiments
Method: (§3) The mouse corticotroph pituitary derived cell line AtT-20/D16v-F2 (ATCC® CRL-1795) was cultured and maintained in Dulbecco's Modified Eagle's Medium (DMEM) complemented with 10% FBS, 100 U/ml penicillin/streptomycin, 0.024 M of 2-(4(2-hydroxyethyl)-1-piperazine)-ethane sulfonic acid (HEPES), and maintained at 37°C and 5% CO2, under sterile conditions. CHO-K1 cell line(ATCC® CCL-61) expressing recombinant human GHSR1a (GenBank accession number U60179) or GHSR1b (GenBank accession number U60181) were cultured and maintained in Ham's F12 media (Corning #10-080-CV) supplemented with 10% FBS, 2 mM L-Glutamine and 0.4 mg/mL Geneticin.
To examine the effects of ghrelin system components (4- and/or 24 h-incubation) on pituitary hormone release from primary pituitary adenoma and/or AtT-20 cell line, 100,000–200,000 cell/well were used. As previously reported, hormone concentrations were measured in the culture media derived from human samples according to the pituitary adenoma type using commercial ELISAs [growth hormone, GH; adrenocorticotropin, ACTH; and prolactin, PRL (reference numbers: EIA-3552, EIA-3647 and EIA-1291, respectively; DRG, Mountainside, NJ, USA)] following the manufacturer's instructions. All the information regarding specificity, detectability, and reproducibility for each of the assays can be accessed at the web site of the company.

AtT-20 cell line [2] = test: cell viability of AtT-20 cell line; format: cell-based, mouse; conditions: alamar-blue, 3–5 independent experiments, IGF-1 and Paclitaxel as controls
Method: as §3
As previously reported, cell viability was estimated using alamar-blue reagent (10,000 cells/well-plate; Biosource International, Camarillo, CA, USA)[30][50][52]. Briefly, cells were serum-starved for 12–16 h before the measurements and treated with serum-free medium containing 10% alamar-blue for 3 h. Reduction of alamar-blue reagent was quantified exciting at 560 nm and reading at 590 nm using the FlexStation III system (Molecular Devices, Sunnyvale, CA, USA). Subsequently, media was replaced by serum-containing alamar-blue free medium and incubated for additional 24–72 h, measuring the alamar-blue reduction every 24 h. […]

Compound: 5′-GAGTCCTAAACAGACTGTT-3′ (siRNA; other strand not given here) [In1-ghrelin siRNA]
cell viability after In1-ghrelin silencing (GH-omas): reduced cell viability
cell viability after In1-ghrelin silencing (NFPAs): reduced cell viability
silencing of In1-ghrelin expression (In1-ghrelin mRNA): more robust silencing efficiency of In1-ghrelin, but not native ghrelin
silencing of In1-ghrelin expression (In1-ghrelin mRNA; listed as specific siRNAs): decrease of In1-ghrelin mRNA expression
ghrelin mRNA expression after In1-ghrelin silencing (In1-ghrelin mRNA; selectivity vs native ghrelin): no significant decrease of ghrelin mRNA expression

EC50 (recombinant human GHSR1b): > 3 µM
Compound: CCCCCCCC(=O)OC[C@H](NC(=O)[C@H](CO)NC(=O)CN)C(=O)N[C@@H](Cc1ccccc1)C(=O)N[C@@H](CC(C)C)C(=O)N[C@@H](CO)C(=O)N1CCC[C@H]1C(=O)N[C@@H](CCC(=O)O)C(=O)N[C@@H](Cc1c[nH]cn1)C(=O)N[C@@H](CCC(N)=O)C(=O)N[C@@H](CCCNC(=N)N)C(=O)N[C@H](C(=O)N[C@@H](CCC(N)=O)C(=O)N[C@H](C(=O)N[C@@H](CCCNC(=N)N)C(=O)N1CCC[C@H]1C(=O)N1CCC[C@H]1C(=O)N[C@@H](Cc1c[nH]cn1)C(=O)N[C@@H](CCCCN)C(=O)O)C(C)C)C(C)C [In1-19] (H-GSS(Octanoyl)FLSPEHQRVQVRPPHK-OH)

EC50 (recombinant human GHSR1b): > 3 µM
Compound: CCCCCCCC(=O)OC[C@H](NC(=O)[C@H](CO)NC(=O)CN)C(=O)N[C@@H](Cc1ccccc1)C(=O)N[C@@H](CC(C)C)C(=O)N[C@@H](CO)C(=O)N1CCC[C@H]1C(=O)N[C@@H](CCC(=O)O)C(=O)N[C@@H](Cc1c[nH]cn1)C(=O)N[C@@H](CCC(N)=O)C(=O)N[C@@H](CCCNC(=N)N)C(=O)N[C@H](C(=O)N[C@@H](CCC(N)=O)C(=O)N[C@H](C(=O)N[C@@H](CCCNC(=N)N)C(=O)N1CCC[C@H]1C(=O)N1CCC[C@H]1C(=O)N[C@@H](Cc1c[nH]cn1)C(=O)N[C@@H](CCCCN)C(=O)N[C@@H](C)C(=O)N1CCC[C@H]1C(=O)N[C@@H](Cc1c[nH]cn1)C(=O)N[C@H](C(=O)N[C@H](C(=O)N1CCC[C@H]1C(=O)N[C@@H](C)C(=O)N[C@@H](CC(C)C)C(=O)N1CCC[C@H]1C(=O)N[C@@H](CC(C)C)C(=O)N[C@@H](CO)C(=O)N[C@@H](CC(N)=O)C(=O)N[C@@H](CCC(N)=O)C(=O)N[C@@H](CC(C)C)C(=O)N[C@@H](CS)C(=O)N[C@@H](CC(=O)O)C(=O)N[C@@H](CC(C)C)C(=O)N[C@@H](CCC(=O)O)C(=O)N[C@@H](CCC(N)=O)C(=O)N[C@@H](CCC(N)=O)C(=O)N[C@@H](CCCNC(=N)N)C(=O)O)C(C)C)C(C)C)C(C)C)C(C)C [In1-40] (H-GSS(Octanoyl)FLSPEHQRVQVRPPHKAPHVVPALPLSNQLCDLEQQR-OH)

Compound: GSSFLSPEHQKAQVSQSVSLSPHIYPDLCVCV [In2-ghrelin, 32-aa mouse In2-ghrelin derived peptide, murine counterpart of In1-ghrelin]
basal ACTH release (AtT-20 cell line [1]): significantly increased basal ACTH release
cell viability (AtT-20 cell line [2]): stimulated cell viability; also recorded: increased cell viability
